21 compounds from patent US10745382B2 (BRISTOL-MYERS SQUIBB COMPANY, priority 2015, dated 2020) can be followed below.

The structures appear in SMILES notation.

The target in one assay is T1, PD-1/PD-L1 (Homo sapiens, UniProt Q9NZQ7).
T1 construct: made in house; host or cells: HEK293T
T1 sequence (Q9NZQ7 with tags, fused parts or gaps): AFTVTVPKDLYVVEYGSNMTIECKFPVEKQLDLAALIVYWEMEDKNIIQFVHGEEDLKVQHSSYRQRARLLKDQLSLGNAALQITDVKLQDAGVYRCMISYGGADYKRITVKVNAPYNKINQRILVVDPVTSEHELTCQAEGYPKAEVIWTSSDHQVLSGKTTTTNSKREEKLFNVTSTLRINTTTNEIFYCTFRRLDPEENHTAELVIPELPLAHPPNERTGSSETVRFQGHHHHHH
In words: PD-1/PD-L1 Homogenous Time-Resolved Fluorescence (HTRF) binding assay. The conditions noted are these: PD-L1-His 10 nM, PD-1-Ig 20 nM; numeric IC50; read-out: Range or IC50. The method in brief: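 dPBS + 0.1% BSA + 0.05% Tween-20 buffer; Eu-cryptate anti-Ig 1 nM final, APC anti-His 20 nM final; HTRF read. Counter-assays: PD-1-Ig/PD-L2-His 20 & 5 nM, CD80-His/PD-L1-Ig 100 & 10 nM.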
In general terms: Time-resolved FRET reads energy transfer from a long-lived donor to a nearby acceptor.
One may read the IC50 as the concentration needed to halve the response being measured. `Cc1c(COc2cc(OCc3cncc(C#N)c3)c(CN[C@@H](Cc3ccc(O)cc3)C(=O)O)cc2Cl)cccc1-c1cccc(OCCCN2CC[C@@H](O)C2)c1C` [Example 4157, (5-chloro-2-((5-cyanopyridin-3-yl)methoxy)-4-((3′-(3-((R)-3-hydroxypyrrolidin-1-yl)propoxy)-2,2′-dimethyl-[1,1′-biphenyl]-3-yl)methoxy)benzyl)-L-tyrosine]: the IC50 amounted to 3 nM.

For `Cc1ccc(COc2cc(OCc3cccc(-c4cccc(OCCCN5CC[C@@H](O)C5)c4C)c3C)c(Cl)cc2CNC(C)(CO)CO)cc1C` [Example 4506, (R)-2-((5-chloro-2-((3,4-dimethylbenzyl)oxy)-4-((3′-(3-(3-hydroxypyrrolidin-1-yl)propoxy)-2,2′-dimethyl-[1,1′-biphenyl]-3-yl)methoxy)benzyl)amino)-2-methylpropane-1,3-diol], the IC50 came to 3 nM.

The same assay, now with this note: PD-L1-His 10 nM, PD-1-Ig 20 nM; value given as range class; read-out: Range or IC50.
For the compound `Cc1c(COc2cc(OCc3cncc(C#N)c3)c(CN[C@H](C(=O)O)C(C)C)cc2Cl)cccc1-c1cccc(OCCCN2CC[C@@H](O)C2)c1C` [Example 4150, (5-chloro-2-((5-cyanopyridin-3-yl)methoxy)-4-((3′-(3-((R)-3-hydroxypyrrolidin-1-yl)propoxy)-2,2′-dimethyl-[1,1′-biphenyl]-3-yl)methoxy)benzyl)-L-valine], the IC50 is 0.21 to 10 nM.

Take `CCCC[C@H](NCc1cc(Cl)c(OCc2cccc(-c3cccc(OCCCN4CC[C@@H](O)C4)c3C)c2C)cc1OCc1cncc(C#N)c1)C(=O)O` [Example 4151, (S)-2-((5-chloro-2-((5-cyanopyridin-3-yl)methoxy)-4-((3′-(3-((R)-3-hydroxypyrrolidin-1-yl)propoxy)-2,2′-dimethyl-[1,1′-biphenyl]-3-yl)methoxy)benzyl)amino)hexanoic Acid]: the IC50 fell in the range of 0.21 to 10 nM.

As for `Cc1c(COc2cc(OCc3cncc(C#N)c3)c(CN[C@@H](Cc3ccccc3)C(=O)O)cc2Cl)cccc1-c1cccc(OCCCN2CC[C@@H](O)C2)c1C` [Example 4152, (5-chloro-2-((5-cyanopyridin-3-yl)methoxy)-4-((3′-(3-((R)-3-hydroxypyrrolidin-1-yl)propoxy)-2,2′-dimethyl-[1,1′-biphenyl]-3-yl)methoxy)benzyl)-L-phenylalanine], the IC50 is 0.21 to 10 nM.

Regarding `Cc1c(COc2cc(OCc3cncc(C#N)c3)c(CN[C@@H](CC(C)C)C(=O)O)cc2Cl)cccc1-c1cccc(OCCCN2CC[C@@H](O)C2)c1C` [Example 4153, (5-chloro-2-((5-cyanopyridin-3-yl)methoxy)-4-((3′-(3-((R)-3-hydroxypyrrolidin-1-yl)propoxy)-2,2′-dimethyl-[1,1′-biphenyl]-3-yl)methoxy)benzyl)-L-leucine], the IC50 was 0.21 to 10 nM.

Regarding `CCC[C@H](NCc1cc(Cl)c(OCc2cccc(-c3cccc(OCCCN4CC[C@@H](O)C4)c3C)c2C)cc1OCc1cncc(C#N)c1)C(=O)O` [Example 4154, (S)-2-((5-chloro-2-((5-cyanopyridin-3-yl)methoxy)-4-((3′-(3-((R)-3-hydroxypyrrolidin-1-yl)propoxy)-2,2′-dimethyl-[1,1′-biphenyl]-3-yl)methoxy)benzyl)amino)pentanoic Acid], the half-maximal inhibitory concentration (IC50) fell in the range of 0.21 to 10 nM.

Consider `C=CC[C@H](NCc1cc(Cl)c(OCc2cccc(-c3cccc(OCCCN4CC[C@@H](O)C4)c3C)c2C)cc1OCc1cncc(C#N)c1)C(=O)O` [Example 4155, (S)-2-((5-chloro-2-((5-cyanopyridin-3-yl)methoxy)-4-((3′-(3-((R)-3-hydroxypyrrolidin-1-yl)propoxy)-2,2′-dimethyl-[1,1′-biphenyl]-3-yl)methoxy)benzyl)amino)pent-4-enoic Acid], for which the IC50 fell in the range of 0.21 to 10 nM.

Turning to `Cc1c(COc2cc(OCc3cncc(C#N)c3)c(CN[C@H](C(=O)O)c3ccccc3)cc2Cl)cccc1-c1cccc(OCCCN2CC[C@@H](O)C2)c1C` [Example 4156, (S)-2-((5-chloro-2-((5-cyanopyridin-3-yl)methoxy)-4-((3′-(3-((R)-3-hydroxypyrrolidin-1-yl)propoxy)-2,2′-dimethyl-[1,1′-biphenyl]-3-yl)methoxy)benzyl)amino)-2-phenylacetic Acid], the IC50 was in the range of 0.21 to 10 nM.

Take `Cc1c(COc2cc(OCc3cc(Cl)cc(Cl)c3)c(CNC(CO)CO)cc2Cl)cccc1-c1cccc(OCCCN2CC[C@@H](O)C2)c1C` [Example 4501, (R)-2-((5-chloro-2-((3,5-dichlorobenzyl)oxy)-4-((3′-(3-(3-hydroxypyrrolidin-1-yl)propoxy)-2,2′-dimethyl-[1,1′-biphenyl]-3-yl)methoxy)benzyl)amino)propane-1,3-diol]: the IC50 lay in the range of 0.21 to 10 nM.

As to `Cc1c(COc2cc(OCc3cc(Cl)cc(Cl)c3)c(CNC(CO)(CO)CO)cc2Cl)cccc1-c1cccc(OCCCN2CC[C@@H](O)C2)c1C` [Example 4502, (R)-2-((5-chloro-2-((3,5-dichlorobenzyl)oxy)-4-((3′-(3-(3-hydroxypyrrolidin-1-yl)propoxy)-2,2′-dimethyl-[1,1′-biphenyl]-3-yl)methoxy)benzyl)amino)-2-(hydroxymethyl)propane-1,3-diol], the IC50 is 0.21 to 10 nM.

`Cc1c(COc2cc(OCc3cc(Cl)cc(Cl)c3)c(CN3CCCC[C@H]3C(=O)O)cc2Cl)cccc1-c1cccc(OCCCN2CC[C@@H](O)C2)c1C` [Example 4503, (S)-1-(5-chloro-2-((3,5-dichlorobenzyl)oxy)-4-((3′-(3-((R)-3-hydroxypyrrolidin-1-yl)propoxy)-2,2′-dimethyl-[1,1′-biphenyl]-3-yl)methoxy)benzyl)piperidine-2-carboxylic Acid]: the IC50 lay within 0.21 to 10 nM.

For the compound `Cc1c(COc2cc(OCc3cc(Cl)cc(Cl)c3)c(CNC(C)(CO)CO)cc2Cl)cccc1-c1cccc(OCCCN2CC[C@@H](O)C2)c1C` [Example 4504, (R)-2-((5-chloro-2-((3,5-dichlorobenzyl)oxy)-4-((3′-(3-(3-hydroxypyrrolidin-1-yl)propoxy)-2,2′-dimethyl-[1,1′-biphenyl]-3-yl)methoxy)benzyl)amino)-2-methylpropane-1,3-diol], the IC50 lay within 0.21 to 10 nM.

Turning to `Cc1ccc(COc2cc(OCc3cccc(-c4cccc(OCCCN5CC[C@@H](O)C5)c4C)c3C)c(Cl)cc2CNC(CO)CO)cc1C` [Example 4505, (R)-2-((5-chloro-2-((3,4-dimethylbenzyl)oxy)-4-((3′-(3-(3-hydroxypyrrolidin-1-yl)propoxy)-2,2′-dimethyl-[1,1′-biphenyl]-3-yl)methoxy)benzyl)amino)propane-1,3-diol], the IC50 lay within 0.21 to 10 nM.

Regarding `Cc1ccc(COc2cc(OCc3cccc(-c4cccc(OCCCN5CC[C@@H](O)C5)c4C)c3C)c(Cl)cc2CNC(CO)(CO)CO)cc1C` [Example 4507, (R)-2-((5-chloro-2-((3,4-dimethylbenzyl)oxy)-4-((3′-(3-(3-hydroxypyrrolidin-1-yl)propoxy)-2,2′-dimethyl-[1,1′-biphenyl]-3-yl)methoxy)benzyl)amino)-2-(hydroxymethyl)propane-1,3-diol], the IC50 lay in the range of 0.21 to 10 nM.

Consider `Cc1ccc(COc2cc(OCc3cccc(-c4cccc(OCCCN5CC[C@@H](O)C5)c4C)c3C)c(Cl)cc2CN2CCCC[C@H]2C(=O)O)cc1C` [Example 4508, (S)-1-(5-chloro-2-((3,4-dimethylbenzyl)oxy)-4-((3′-(3-((R)-3-hydroxypyrrolidin-1-yl)propoxy)-2,2′-dimethyl-[1,1′-biphenyl]-3-yl)methoxy)benzyl)piperidine-2-carboxylic Acid], for which the IC50 fell in the range of 0.21 to 10 nM.

`Cc1c(COc2cc(OCc3ccc(F)c(F)c3)c(CNC(CO)CO)cc2Cl)cccc1-c1cccc(OCCCN2CC[C@@H](O)C2)c1C` [Example 4509, (R)-2-((5-chloro-2-((3,4-difluorobenzyl)oxy)-4-((3′-(3-(3-hydroxypyrrolidin-1-yl)propoxy)-2,2′-dimethyl-[1,1′-biphenyl]-3-yl)methoxy)benzyl)amino)propane-1,3-diol]: the IC50 is 0.21 to 10 nM.

As for `Cc1c(COc2cc(OCc3ccc(F)c(F)c3)c(CNC(C)(CO)CO)cc2Cl)cccc1-c1cccc(OCCCN2CC[C@@H](O)C2)c1C` [Example 4510, (R)-2-((5-chloro-2-((3,4-difluorobenzyl)oxy)-4-((3′-(3-(3-hydroxypyrrolidin-1-yl)propoxy)-2,2′-dimethyl-[1,1′-biphenyl]-3-yl)methoxy)benzyl)amino)-2-methylpropane-1,3-diol], the IC50 lay in the range of 10 to 100 nM.

Take `Cc1c(COc2cc(OCc3ccc(F)c(F)c3)c(CNC(CO)(CO)CO)cc2Cl)cccc1-c1cccc(OCCCN2CC[C@@H](O)C2)c1C` [Example 4511, (R)-2-((5-chloro-2-((3,4-difluorobenzyl)oxy)-4-((3′-(3-(3-hydroxypyrrolidin-1-yl)propoxy)-2,2′-dimethyl-[1,1′-biphenyl]-3-yl)methoxy)benzyl)amino)-2-(hydroxymethyl)propane-1,3-diol]: the IC50 lay in the range of 0.21 to 10 nM.

Take `Cc1c(COc2cc(OCc3ccc(F)c(F)c3)c(CN3CCCC[C@H]3C(=O)O)cc2Cl)cccc1-c1cccc(OCCCN2CC[C@@H](O)C2)c1C` [Example 4512, (S)-1-(5-chloro-2-((3,4-difluorobenzyl)oxy)-4-((3′-(3-((R)-3-hydroxypyrrolidin-1-yl)propoxy)-2,2′-dimethyl-[1,1′-biphenyl]-3-yl)methoxy)benzyl)piperidine-2-carboxylic Acid]: the IC50 was 0.21 to 10 nM.

`Cc1cccc(C)c1COc1cc(OCc2cccc(-c3cccc(OCCCN4CC[C@@H](O)C4)c3C)c2C)c(Cl)cc1CNC(C)(CO)CO` [Example 4514, (R)-2-((5-chloro-2-((2,6-dimethylbenzyl)oxy)-4-((3′-(3-(3-hydroxypyrrolidin-1-yl)propoxy)-2,2′-dimethyl-[1,1′-biphenyl]-3-yl)methoxy)benzyl)amino)-2-methylpropane-1,3-diol]: the IC50 fell in the range of 100 to 2000 nM.
